Measured values: patent US20040126359A1, “Hedgehog” (priority 2001, published 2004)

What was measured:
[1] = test system: human CD4 T-cells; experiment: Proliferation of human CD4 T-cells cultured with Shh N-terminal active peptide (3H thymidine); type: cell-based; settings: activated CD4+ T-cells; dose dependent
[2] = test system: CD4+ T-cells; experiment: T-cell proliferation assay (3H-TdR incorporation); type: cell-based, mouse
Protocol: Single cell suspensions from pooled C57BL/6 mouse spleens were applied to negative selection CD4^+ T-cell columns (R&D systems Europe Ltd, Abingdon, UK) as per manufacturers instructions. Purity was checked using FACS staining with an anti-CD4^FITC antibody and this ranged between 88-93%.
CD4^+ T-cells were cultured in RPMI 1640 medium (Life Technologies, Paisley, UK) supplemented with 10% FCS (Life Technologies), 2 mM L-glutamine, (Sigma, Dorset, UK), 20 μg/ml penicillin/streptomycin (Life Technologies) and […] 2-mercaptoethanol (Sigma). Anti-CD3/28 antibody activation was carried out at 2 concentrations, namely ‘sub-optimal’ (anti-CD3 at 0.25 μg/ml and anti-CD28 at 0.1 μg/ml) and ‘optimal’ (anti-CD3 at 1 μg/ml and anti-CD28 at 5 μg/ml). Tissue culture plates (Corning Inc., NY, USA) were coated with the anti-CD3 antibody for 90 min at 37° C. prior to addition of the CD4^+ T-cells. Recombinant mouse Shh amino-terminal peptide (R&D systems Europe Ltd, Abingdon, UK) was added into cultures at a concentration of 500 ng/ml. 5E1 antibody was used at either 20 μg/ml or 50 μg/ml and the isotype control was used at 20 μg/ml. The concentrations used were based on results of dose response curves (data not shown).
The CD4^+ T-cells were cultured as above in 96-well plates with and without addition of exogenous Shh or 5E1. They were pulsed after 48 hr of anti-CD3/28 activation with 20 μl of ^3H-TdR (50 μCi/ml) (Amersham), harvested at 72 hr and read on a betaplate scintillation counter (Wallac UK, Milton Keynes, UK).
Purified peripheral CD4^+ T-cells were cultured with and without the addition of the biologically active amino terminal Shh peptide. An initial titration curve established that 500 ng/ml was the optimal dose of the Shh peptide to enhance proliferation of peripheral CD4^+ T-cells (data not shown), and this concentration was used in all subsequent experiments. Shh was added to CD4^+ T-cells that were resting, maximally stimulated with anti-CD3 (1 μg/ml) and anti-CD28 (5 μg/ml) antibodies or sub-optimally activated with anti-CD3 (0.25 μg/ml) and anti-CD28 (0.1 μg/ml).

[3] = test system: Gli2-/Gli3- mice cells; experiment: Cell cycle / survival analysis in Gli2-/Gli3- mice cells; type: cell-based, mouse; settings: Shh 10 and 500 ng/ml
Protocol: Cell survival was measured in Gli2^−/Gli3^− mice cells (i.e. from mice in which one allele each of Gli2 and Gli3 were deleted from the genome) in the presence (10 ng/ml and 500 ng/ml) and absence of Shh;
The CD4^+ T-cells were cultured as above in 48-well plates with and without addition of exogenous Shh or 5E1. At 72 hr post-activation, the cells were spun at 13,000 rpm for 7 min then re-suspended in citrate buffer. Cell cycle analysis was carried out using the Vindelov method (Vindelov et al, 1990). Briefly, the cells were trypsinized (Sigma) to expose the nucleus before being stained with propidium iodide (Sigma). Cell cycle analysis was then performed on an Epics© XL flow cytometer (Beckman Coulter UK Ltd, Bucks, UK). The machine counted 30,000 nuclei in each sample and the software analysed the % of cells in each stage of the cell cycle sub-G1, G1, S phase and G2/M. From these figures, the % of live cells (G1, S and G2/M) was calculated, and from this, the % of live cells in G1 and S/G2 phases.

[4] = test system: CD4+ T-cells; experiment: Taqman real time PCR of Shh, Ihh, HIP and Ptc expression in CD4+ T-cells (FIGS. 14, 15, 17); type: cell-based
Protocol: Expression in medium, in the presence of 50 ng/ml IL-10 and in the presence of 50 ng/ml IFN-γ was compared to expression in resting CD4+ T-cells;
Similar experiments were used to study the expression of Shh (FIG. 4) and Ptc (FIG. 5) in T-cells and the expression of components of the Hh signalling pathway in lymphoid tissues (FIG. 6). FIG. 14 illustrates the results of an RT-PCR analysis of Shh, Ihh, Hip and Ptc expression. Activation of T-cells induced a sustained and marked (approximately 80-fold) increase in Shh mRNA, peaking at 44 and 72 hours. It lead to a downregulation of Ptc.

[5] = test system: human CD8 T-cells; experiment: Proliferation of human CD8 T-cells cultured with Shh N-terminal active peptide (3H thymidine); type: cell-based; settings: activated CD8+ T-cells; dose dependent
[6] = Shh added to activated T-cell cultures

“Shh peptide: Recombinant mouse Shh amino-terminal peptide (R&D systems); biologically active N-terminal Sonic hedgehog fragment” was tested, and the “incorporation of 3H-thymidine” value [1] was “significantly enhances”, the “optimal dose to enhance proliferation of peripheral CD4+ T-cells” value ([2]; initial titration curve (data not shown)) was 500 ng/mL and the “level of proliferation (3H-TdR incorporation)” value ([2]; maximally stimulated (anti-CD3 1 μg/ml, anti-CD28 5 μg/ml), Shh peptide 500 ng/ml added at t=-24 hr or t=0) was “no significant difference”. The degree of proliferation ([2]; resting CD4+ T-cells, Shh peptide 500 ng/ml) was “No significant difference”, the “increase in proliferation, range” value ([2]; sub-optimal activation, Shh peptide 500 ng/ml 24 hr prior to activation) was 16-63% and the “increase in proliferation, mean” value ([2]; sub-optimal activation, Shh peptide 500 ng/ml 24 hr prior to activation, n=3, p<0.04) was 46%. The “increase in CD4+ T-cell proliferation, mean” value ([2]; sub-optimal activation, Shh peptide 500 ng/ml at t=0, 72 hr, p<0.01) was 101.6%, the “increase in CD4+ T-cell proliferation, range” value ([2]; sub-optimal anti-CD3 0.25 μg/ml, anti-CD28 0.1 μg/ml, Shh peptide 500 ng/ml at t=0, 72 hr) was 76.2-128% and the “effect on survival / apoptosis (live cells, sub-G1 pool)” value [3] was “promotes apoptosis”. For the same substance, the Hip expression [4, 6] was “up-regulated”, the Ihh expression [4, 6] was “down-” and the “effect on Ptc downregulation” value ([4]; activated T-cells, Shh addition) was “does not appear to affect”. The “Shh mRNA expression” value ([4]; activated T-cells, Shh addition, 24 hours, 40 cycles of PCR (limit of assay)) was “no signal is detected” and the “incorporation of 3H-thymidine” value [5] was “significantly enhances”.
